Experiments:
[1] = tested on: M. abscessus ATCC 19977T deficient for the expression of the cyt-bcc:aa3 (ΔqcrCAB); experiment: ATP levels in M. abscessus deficient for cyt-bcc:aa3 (ΔqcrCAB), 2-fold dose-response; format: cell-based, Mycobacterium abscessus; settings: Mycobacteroides abscessus, read-out: ATP IC50 ΔgcrCAB
Method: (§1) The compounds described and provided herein were evaluated for their potential to inhibit Cytochrome BD oxidase in Mycobacterium abscessus. M. abscessus ATCC 19977T wild-type (WT) and deficient for the expression of the cyt-bcc:aa3 (ΔqcrCAB) were treated with a 2-fold dose-response (starting from 40 μM) of the drugs. ATP levels were measured after 6 to 15 hours of incubation using a commercial kit.
(§2) M. abscessus ATCC 19977T wild-type (WT) and deficient for the expression of the cyt-bcc:aa3 (ΔqcrCAB) were treated with a 2-fold dose-response (starting from 40 μM) of the drugs. ATP levels were measured after 6 to 15 hours of incubation using a commercial kit.

[2] = tested on: M. abscessus ATCC 19977T wild-type (WT); experiment: ATP levels in M. abscessus wild-type, 2-fold dose-response; format: cell-based, Mycobacterium abscessus; settings: Mycobacteroides abscessus, read-out: ATP IC50 WT
Method: as §1, §2

M. abscessus = experiment: Killing of M. abscessus by clofazimine with or without Compound 12 (FIG. 1)

Row | SMILES | IC50 [1] [µM] | IC50 [2] [µM] | Synergy with clofazimine to kill M. abscessus (M. abscessus; combination of Compound 12 with clofazimine, FIG. 1) | Type of activity of clofazimine against M. abscessus, tested alone (M. abscessus; clofazimine alone) | Type of activity of clofazimine against M. abscessus in the presence of Compound 12 (M. abscessus; in the presence of Compound 12)
1 | Cc1cc2nc(NCCc3ccc(C(F)(F)F)cc3)c3ccccc3n2n1 [Compound 1, 2-methyl-N-(4-(trifluoromethyl)phenethyl) pyrazolo[1,5-a]quinazolin-5-amine] | 12.1 | > 40 | – | – | –
2 | Cc1cc2nc(NC3CC(C)(C)CC(C)(C)C3)c3ccccc3n2n1 [Compound 2, 2-methyl-N-(3,3,5,5-tetramethylcyclohexyl) pyrazolo[1,5-a] quinazolin-5-amine] | > 40 | > 40 | – | – | –
3 | Cc1cc2nc(NC3CCC(F)(F)CC3)c3ccccc3n2n1 [Compound 3, N-(4,4-difluorocyclohexyl)-2-methylpyrazolo[1,5-a] quinazolin-5-amine] | 20 | > 40 | – | – | –
4 | Cc1cc2nc(NC34CC5CC(CC(C5)C3)C4)c3ccccc3n2n1 [Compound 4, N-((3s,5s,7s)-adamantan-1-yl)-2-methylpyrazolo[1,5-a] quinazolin-5-amine] | 9.73 | > 40 | – | – | –
5 | Cc1cc2nc(NC3CCCCC3)c3ccccc3n2n1 [Compound 5, N-cyclohexyl-2-methylpyrazolo[1,5-a] quinazolin-5-amine] | 6.89 | > 40 | – | – | –
6 | Cc1cc2nc(NCc3ccc(N4CCN(c5ccc(F)cc5)CC4)cc3)c3ccccc3n2n1 [Compound 6, N-(4-(4-(4-fluorophenyl)piperazin-1-yl)benzyl)-2-methylpyrazolo[1,5-a] quinazolin-5-amine] | > 40 | > 40 | – | – | –
7 | Cc1cc2nc(Cl)c3ccccc3n2n1 [Compound 7, S-chloro-2-methylpyrazolo[1,5-a] quinazoline] | > 40 | > 40 | – | – | –
8 | Cc1cc2nc(NC3CCCC3)c3ccccc3n2n1 [Compound 8, N-cyclopentyl-2-methylpyrazolo[1,5-a] quinazolin-5-amine] | 15.3 | > 40 | – | – | –
9 | Cc1cc2nc(NC3CCCCCCC3)c3ccccc3n2n1 [Compound 9, N-cyclooctyl-2-methylpyrazolo[1,5-a] quinazolin-5-amine] | 25.9 | > 40 | – | – | –
10 | Cc1cc2nc(NC3CCCCCC3)c3ccccc3n2n1 [Compound 12, N-cycloheptyl-2-methylpyrazolo[1,5-a] quinazolin-5-amine] | 17.4 | > 40 | synergizes with clofazimine to kill M. abscessus | – | –
11 | Cc1cc2nc(Nc3ccc(Oc4ccc(C(F)(F)F)cc4)cc3)c3ccccc3n2n1 [Compound 14, 2-methyl-N-(4-(4-(trifluoromethyl)phenoxy)phenyl)pyrazolo[1,5-a] quinazolin-5-amine] | > 40 | > 40 | – | – | –
12 | Cc1cc2nc(N[C@H]3CCC[C@@H](c4ccc(C(F)(F)F)cc4)C3)c3ccccc3n2n1 [Compound 15A, 2-methyl-N-((1S,3R)-3-(4-(trifluoromethyl)phenyl)cyclohexyl)pyrazolo[1,5-a] quinazolin-5-amine] | 6.6 | > 40 | – | – | –
13 | FC(F)(F)c1ccc([C@@H]2CCC[C@H](Nc3nc4ccnn4c4ccccc34)C2)cc1 [Compound 16A, N-((1S,3R)-3-(4-(trifluoromethyl)phenyl)cyclohexyl)pyrazolo[1,5-a] quinazolin-5-amine] | 32.8 | > 40 | – | – | –
14 | Cc1cc2nc(NC3CC4(CCC4)C3)c3ccccc3n2n1 [Compound 17, 2-methyl-N-(spiro[3.3]heptan-2-yl)pyrazolo[1,5-a] quinazolin-5-amine] | 3.2 | > 40 | – | – | –
15 | Cc1cc2nc(NC3CCC3)c3ccccc3n2n1 [Compound 18, N-cyclobutyl-2-methylpyrazolo[1,5-a] quinazolin-5-amine] | 9.7 | > 40 | – | – | –
16 | Cc1cc2nc(N[C@@H]3C[C@H]3c3ccc(F)c(F)c3)c3ccccc3n2n1 [Compound 19A, N-((1R,2S)-2-(3,4-difluorophenyl)cyclopropyl)-2-methylpyrazolo[1,5-a] quinazolin-5-amine] | 18.7 | > 40 | – | – | –
17 | Cc1cc2nc(NCC3CCCCC3)c3ccccc3n2n1 [Compound 21, N-(cyclohexylmethyl)-2-methylpyrazolo[1,5-a] quinazolin-5-amine] | 12.1 | > 40 | – | – | –
18 | Cc1cc2nc(NCC3CC3)c3ccccc3n2n1 [Compound 22, N-(cyclopropylmethyl)-2-methylpyrazolo[1,5-a] quinazolin-5-amine] | 19.6 | > 40 | – | – | –
19 | Cc1cc2nc(NC3CCC(C(F)(F)F)CC3)c3ccccc3n2n1 (centres unmarked) [Compound 23, 2-methyl-N-(4-(trifluoromethyl)cyclohexyl) pyrazolo[1,5-a] quinazolin-5-amine] | 9 | > 40 | – | – | –
20 | Cc1cc2nc(NC3CCC(C)CC3)c3ccccc3n2n1 (centres unmarked) [Compound 24, 2-methyl-N-(4-methylcyclohexyl)pyrazolo [1,5-a]quinazolin-5-amine] | 9.2 | > 40 | – | – | –
21 | Cc1cc2nc(NC3CCC(C(C)C)CC3)c3ccccc3n2n1 (centres unmarked) [Compound 25] | 2.6 | > 40 | – | – | –
22 | Cc1cc2nc(NC3CCC(C(C)(C)C)CC3)c3ccccc3n2n1 (centres unmarked) [Compound 26, N-(4-(tert-butyl)cyclohexyl)-2-methylpyrazolo[1,5-a] quinazolin-5-amine] | 4.4 | > 40 | – | – | –
23 | CC(C)/N=c1\cc2n(-c3ccc(Cl)cc3)c3ccccc3nc-2cc1Nc1ccc(Cl)cc1 [clofazimine, reference compound] | – | – | – | bacteriostatic | bactericidal

— patent publication US20250282784A1, “CYTOCHROME BD OXIDASE INHIBITORS AND USES THEREOF” (UNIVERSITY OF NOTRE DAME DU LAC, priority 2022, published 2025)
